According to patent US11312711B2, “Morpholine derivative” (Hoffmann-La Roche Inc., priority 2016, dated 2022):
Where two headings read alike, the source gives them in different places.

Legend:
human TAAR1 = human TAAR1 (Homo sapiens (Human), UniProt Q96RJ0); assay: cAMP functional assay in HEK293 cells expressing human TAAR1; assay type: cell-based; conditions: for EC50: cAMP, HEK293 cells expressing human TAAR1, read-out: hTAAR1 EC50
Method: The Expand High Fidelity PCR System (Roche Diagnostics) was used with 1.5 mM Mg^2+ and purified PCR products were cloned into pCR2.1-TOPO cloning vector (Invitrogen) following the instructions of the manufacturer. PCR products were subcloned into the pIRESneo2 vector (BD Clontech, Palo Alto, Calif.), and expression vectors were sequence verified before introduction in cell lines.
HEK293 cells (ATCC #CRL-1573) were cultured essentially as described by Lindemann et al. (2005). For the generation of stably transfected cell lines HEK293 cells were transfected with the pIRESneo2 expression plasmids containing the TAAR coding sequences (described above) with Lipofectamine 2000 (Invitrogen) according to the instructions of the manufacturer, and 24 hrs post transfection the culture medium was supplemented with 1 mg/ml G418 (Sigma, Buchs, Switzerland). After a culture period of about 10 d clones were isolated, expanded and tested for responsiveness to trace amines (all compounds purchased from Sigma) with the cAMP Biotrak Enzyme immunoassay (EIA) System (Amersham) following the non-acetylation EIA procedure provided by the manufacturer.
cAMP measurements were performed as described previously (Revel et al., Proc. Natl. Acad. Sci. USA 2011, 108, 8485-8490). In brief, cells that expressed human TAAR1 were plated on 96-well plates (BIOCOAT 6640; Becton Dickinson, Allschwil, Switzerland) and incubated for 20 h at 37° C. Prior to stimulation of the cells with a broad concentration range of agonists for 30 min at 37° C., the cells were washed with PBS and preincubated with PBS that contained 1 mM 3-isobutyl-1-methylxanthine for 10 min at 37° C. and 5% CO2. Stimulation with 0.2% DMSO was set as the basal level, and the effect of 30 μM β-PEA was set as the maximal response. […] Finally, the plates were read with a luminometer (1420 Multilabel counter; PerkinElmer, Schwerzenbach, Switzerland), and the amount of cAMP was calculated. […]

hERG potassium channels = hERG potassium channels (Homo sapiens (Human), UniProt Q12809); assay: Whole-cell patch-clamp on hERG potassium channels in stably transfected CHO cells; assay type: cell-based
Method: The whole-cell patch-clamp technique was used to investigate the effects of the test items on hERG (human-ether-a-go-go related gene) potassium channels in stably transfected CHO cells near physiological temperature (36±1° C.). The effects of compounds on hERG K^+-current parameters were evaluated at 4 concentrations (0.3-3-30-300 μM) in at least 3 CHO cells stably expressing the hERG channel. For electrophysiological measurements cells were seeded onto 35 mm sterile culture dishes containing 2 ml culture medium without Hygromycin B. Cells were cultivated at a density that enabled single cells (without visible connections to neighbouring cells) to be measured. Cells were incubated at 37° C. in a humidified atmosphere with 5% CO2 (rel. humidity about 95%). The cells were continuously maintained in and passaged in sterile culture flasks containing nutrient mixture F-12 (DMEM/F-12 with L-Glutamine) supplemented with 10% foetal bovine serum and 10% penicillin/streptomycin solution. […] The 35 mm culture dishes upon which cells were seeded at a density allowing single cells to be recorded were placed on the dish holder of the microscope and continuously perfused (at approximately 1 ml/min) with the bath solution (sodium chloride 150 mM, potassium chloride 4 mM, calcium chloride 1.2 mM, magnesium chloride 1 mM, HEPES 10 mM, pH (NaOH) 7.4) at near physiological temperature (36±1° C.). After formation of a Gigaohm seal between the patch electrodes and individual hERG stably transfected CHO cells (pipette resistance range: 2.0 MΩ-7.0 MΩ; seal resistance range: >1 GΩ) the cell membrane across the pipette tip was ruptured to assure electrical access to the cell interior (whole-cell patch-configuration). In case the quality of the seal was poor, the process of seal formation was repeated with a different cell and a new pipette. […] This voltage protocol was run at least 10 times at intervals of 10 s. If current density was judged to be too low for measurement, another cell was recorded. […] During wash-in of the test item the voltage protocol indicated above was run continuously again at 10 s intervals until the steady-state level of block was reached. The four test item concentrations of the compound were applied sequentially to 3 cells in a cumulative manner. […] Based on the IC50 value the IC20 was estimated. Each concentration of the test item was analyzed in three experiments (n=3).

human DAT = human DAT (Homo sapiens (Human), UniProt Q01959); assay: Binding to dopamine transporter (DAT) in vitro, [3H]-WIN35,428 SPA
Method: Binding to dopamine transporter (DAT) in vitro. Human embryonic kidney (HEK) 293 cells (Invitrogen, Zug, Switzerland) stably transfected with human DAT were cultured. The cells were collected and washed three times with phosphate-buffered saline (PBS). The pellets were frozen at −80° C. The pellets were then resuspended in 400 ml of 20 mM HEPES-NaOH, pH 7.4, that contained 10 mM EDTA at 4° C. […] Aliquots of the membrane stocks were frozen at −80° C. All assays were performed at least three times. The test compounds were diluted in […] of binding buffer (252 mM NaCl, 5.4 mM KCl, 20 mM Na2HPO4, 3.52 mM KH2PO4, pH 7.4) and 10 point dilution curves were made and transferred to 96-well white polystyrene assay plates (Sigma-Aldrich, Buchs, Switzerland). […] Twenty microliters of binding buffer alone in the assay plate defined the total binding, whereas binding in the presence of 10 μM indatraline defined nonspecific binding. Frozen DAT membrane stocks were thawed and resuspended to a concentration of approximately 0.04 mg protein/ml binding buffer (1:1 diluted in H2O) using a polytron tissue homogenizer. The membrane homogenates (40 μg/ml) were then lightly mixed for 5-30 min with polyvinyl toluene […] wheat germ agglutinin-coated scintillation proximity assay (WGASPA; Amersham Biosciences) beads at 7.7 mg beads/ml homogenate. One hundred thirty microliters of the membrane/bead mixture were added to each well of the assay plate that contained radioligand and test compounds (final volume in each well, 200 μl) to start the assay, which was incubated for approximately 2 h at room temperature with agitation. The assay plates were then counted in the PVT SPA counting mode of a Packard Topcount. […] Non-linear regression was used to fit the data to sigmoid curves and determine IC50 values for binding and uptake. Ki values for binding and uptake were calculated using the following Cheng-Prusoff equation: Ki=IC50/(1+[S]/Km).

mutant DAT = mutant DAT (Mus musculus (Mouse), UniProt Q61327, A109V/F105C/L104V); conditions: cocaine-insensitive DAT; cited from earlier work

human TAAR1, sequence (Q96RJ0 whole entry): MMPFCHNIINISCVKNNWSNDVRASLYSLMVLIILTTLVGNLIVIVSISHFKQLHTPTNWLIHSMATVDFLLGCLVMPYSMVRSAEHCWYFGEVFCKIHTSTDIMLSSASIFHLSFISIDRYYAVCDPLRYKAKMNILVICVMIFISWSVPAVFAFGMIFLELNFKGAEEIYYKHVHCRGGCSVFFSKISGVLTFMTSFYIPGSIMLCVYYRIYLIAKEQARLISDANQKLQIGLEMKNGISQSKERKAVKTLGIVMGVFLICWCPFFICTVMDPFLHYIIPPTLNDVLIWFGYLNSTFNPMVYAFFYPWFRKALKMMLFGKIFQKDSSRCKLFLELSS
human DAT, sequence (Q01959 whole entry): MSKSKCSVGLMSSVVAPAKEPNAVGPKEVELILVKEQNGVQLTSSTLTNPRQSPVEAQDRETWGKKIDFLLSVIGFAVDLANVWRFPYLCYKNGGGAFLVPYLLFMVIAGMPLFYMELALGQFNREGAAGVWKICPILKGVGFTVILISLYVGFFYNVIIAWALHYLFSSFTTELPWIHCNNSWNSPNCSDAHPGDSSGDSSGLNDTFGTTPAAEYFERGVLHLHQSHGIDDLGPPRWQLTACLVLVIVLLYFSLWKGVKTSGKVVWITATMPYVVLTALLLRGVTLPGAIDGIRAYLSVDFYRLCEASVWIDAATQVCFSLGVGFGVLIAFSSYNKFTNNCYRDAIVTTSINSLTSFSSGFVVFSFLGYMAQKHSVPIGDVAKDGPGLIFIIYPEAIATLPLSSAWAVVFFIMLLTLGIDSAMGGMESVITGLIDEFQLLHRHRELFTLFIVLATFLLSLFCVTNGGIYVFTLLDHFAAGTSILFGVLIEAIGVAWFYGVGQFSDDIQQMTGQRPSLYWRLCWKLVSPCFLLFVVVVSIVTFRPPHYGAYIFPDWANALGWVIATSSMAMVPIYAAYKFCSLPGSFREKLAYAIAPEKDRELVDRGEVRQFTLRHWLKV
hERG potassium channels, sequence (Q12809 whole entry): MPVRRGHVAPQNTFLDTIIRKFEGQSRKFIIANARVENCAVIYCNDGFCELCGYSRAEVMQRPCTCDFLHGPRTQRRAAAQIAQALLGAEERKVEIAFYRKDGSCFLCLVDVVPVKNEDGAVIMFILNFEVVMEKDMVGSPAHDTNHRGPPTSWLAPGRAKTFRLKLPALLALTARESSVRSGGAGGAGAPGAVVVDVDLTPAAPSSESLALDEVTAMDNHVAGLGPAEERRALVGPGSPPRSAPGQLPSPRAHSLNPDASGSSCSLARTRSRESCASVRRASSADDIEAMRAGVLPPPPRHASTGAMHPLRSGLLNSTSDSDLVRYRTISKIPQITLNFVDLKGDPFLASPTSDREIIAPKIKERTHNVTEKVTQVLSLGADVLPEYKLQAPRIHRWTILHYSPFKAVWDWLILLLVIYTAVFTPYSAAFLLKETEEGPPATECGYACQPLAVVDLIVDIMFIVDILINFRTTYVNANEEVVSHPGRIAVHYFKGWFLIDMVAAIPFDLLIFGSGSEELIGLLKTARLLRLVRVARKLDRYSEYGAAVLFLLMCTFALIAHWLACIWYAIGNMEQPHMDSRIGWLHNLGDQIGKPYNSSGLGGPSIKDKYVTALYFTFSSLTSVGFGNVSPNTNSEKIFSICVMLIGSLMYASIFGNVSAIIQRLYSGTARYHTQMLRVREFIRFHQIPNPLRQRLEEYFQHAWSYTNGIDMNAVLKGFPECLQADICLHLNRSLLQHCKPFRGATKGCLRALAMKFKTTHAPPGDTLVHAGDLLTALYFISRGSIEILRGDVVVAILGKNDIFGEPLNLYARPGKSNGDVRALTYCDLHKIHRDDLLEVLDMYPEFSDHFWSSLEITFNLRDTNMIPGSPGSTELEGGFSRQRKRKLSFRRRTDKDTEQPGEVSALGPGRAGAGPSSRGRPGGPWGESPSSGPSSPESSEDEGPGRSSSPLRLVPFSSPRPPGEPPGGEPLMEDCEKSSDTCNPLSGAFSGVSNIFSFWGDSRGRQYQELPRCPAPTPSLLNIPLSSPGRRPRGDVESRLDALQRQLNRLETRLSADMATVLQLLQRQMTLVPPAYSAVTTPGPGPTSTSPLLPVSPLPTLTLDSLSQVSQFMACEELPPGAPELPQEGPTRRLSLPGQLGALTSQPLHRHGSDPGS

Molecule	hTAAR1 efficacy (human TAAR1; % agonist activity, β-phenylethylamine = 100% agonism)	EC50 (human TAAR1; listed as Comparative example 12)	EC50 (human TAAR1)	Ratio hERG IC20/hTAAR1 EC50 (hERG potassium channels)	IC20 (hERG potassium channels; estimated based on the IC50 value)	hERG selectivity ratio versus hTAAR1 EC50 (hERG potassium channels; hERG IC20 versus hTAAR1 EC50)	IC50 (hERG potassium channels; patch-clamp, CHO cells, 36±1° C.)	Ratio DAT Ki/hTAAR1 EC50 (human DAT)	DAT selectivity ratio versus hTAAR1 EC50 (human DAT; DAT Ki versus hTAAR1 EC50)	Ki (human DAT; [3H]-WIN35,428 radioligand)	lower affinity of mutant DAT for cocaine relative to wild-type DAT (mutant DAT)
5-Chloro-N-[4-[(2S)-morpholin-2-yl]phenyl]pyridine-2-carboxamide [Example 12]	40%	0.212 µM	0.212 µM	15	3.21 µM	15 fold	14.3 µM	8	8 fold	1.78 µM	–
COC(=O)[C@H]1[C@@H](OC(=O)c2ccccc2)C[C@@H]2CC[C@H]1N2C [cocaine]	–	–	–	–	–	–	–	–	–	–	89 fold
